From US20240148821A1, “PHARMACEUTICAL USE OF CYCLIC PEPTIDE COMPOUND” (CHUGAI SEIYAKU KABUSHIKI KAISHA, priority 2021, published 2024)
Numbered stars: 1 amine (or outer) side, 2 acyl side, 3 side chain; on linkers, the order of the positions; unused ones are H or OH. Bridge positions count the residues as written; N and C are the ends. Square brackets hold non-standard residues; d marks the D form. Peptide text beside a SMILES is read from it. * marks the point of attachment. hPhe(3,5-F2-4-CF3) = N[C@@H](CCc1cc(F)c(C(F)(F)F)c(F)c1)C(=O)O; hPhe(3-Cl-4-CF3) = N[C@@H](CCc1ccc(C(F)(F)F)c(Cl)c1)C(=O)O; hPhe(3-F,4-CF3) = N[C@@H](CCc1ccc(C(F)(F)F)c(F)c1)C(=O)O; NEtPhe(4-CF3) = CCN[C@@H](Cc1ccc(C(F)(F)F)cc1)C(=O)O; 3Oxa8azabicyclo(3.2.1)octane = C1CC2COCC1N2*; NEtPhe(4-Me) = CCN[C@@H](Cc1ccc(C)cc1)C(=O)O; NMePhe(4-Cl) = CN[C@@H](Cc1ccc(Cl)cc1)C(=O)O; NMedβ3hAla = C[C@H](CC(=O)[*:2])N(C)[*:1]; NMeGly(cPent) = CN[C@H](C(=O)O)C1CCCC1; Pro(4,4-F2) = O=C(O)[C@@H]1CC(F)(F)CN1; NMeCha = CN[C@@H](CC1CCCCC1)C(=O)O; cisHyp = O=C(O)[C@@H]1C[C@H](O)CN1; Hyp = O=C(O)[C@@H]1C[C@@H](O)CN1; NMeI = CC[C@H](C)[C@H](NC)C(=O)O; NMeD = CN[C@@H](CC(=O)O)C(=O)O; NMeL = CN[C@@H](CC(C)C)C(=O)O; d(β3hA) = C[C@@H](N)CC(=O)O; Morpholide = C1CN(*)CCO1; NMeA = CN[C@@H](C)C(=O)O; NMeAib = CNC(C)(C)C(=O)O; Ac5c = NC1(C(=O)O)CCCC1; Aze = O=C(O)[C@@H]1CCN1; Ac4c = NC1(C(=O)O)CCC1; Sar = CNCC(=O)O

Columns and labels:
[1] = target: protein-protein interaction between Kras and SOS1 (biotin-tagged human Kras loaded with GDP, His-tagged human SOS1) (Homo sapiens (Human), UniProt P01116, G12D); assay: Protein-protein interaction inhibition between Kras and SOS1 (KrasG12D-SOS PPI) using AlphaScreen; format: biochemical; conditions: AlphaScreen; biotin-tagged human Kras loaded with GDP, His-tagged human SOS1; read-out: KRAS G12D-SOS PPI IC50;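 note: kras produced in E. coli, Ni-coupled donor beads and streptavidin acceptor beads, excitation 680 nm with emission detected at 520–620 nm via singlet oxygen transfer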
[2] = system: Human pancreatic cancer cell line AsPC-1 (G12D mutation Kras); assay: AsPC-1 cell growth inhibition (AsPC-1 CGI); format: cell-based; conditions: read-out: AsPC-1 cell growth inhibition, 50% growth inhibitory concentration (IC50 value); 96 hours, CellTiter-Glo, values classified in ranges
Experimental: Test compounds were serially dilated with dimethyl sulfoxide, and 200 nL was then dispensed to a U-bottom 96-well plate using Labcyte Echo. […] The cell suspension was dispensed to a. plate containing a test compound at 100 μL per well and incubated at 37° C. in a 5% carbon dioxide gas incubator. 96 hours later, 80 μL of CellTiter-Glo (Promega) was added to each well and fluorescence was measured.

SMILES | IC50 [1] [nM] | IC50 [2] [nM]
CC[C@H](C)[C@@H]1NC(=O)[C@H](CC(C)C)N(C)C(=O)C[C@@H](C(=O)N2CCOCC2)N(C)C(=O)[C@H]([C@@H](C)CC)N(C)C(=O)C2(CCCC2)NC(=O)[C@@H]2CCCN2C(=O)[C@H](CCc2cc(F)c(C(F)(F)F)c(F)c2)NC(=O)CN(C)C(=O)[C@H](Cc2ccc(C(F)(F)F)cc2)N(CC)C(=O)[C@@H]2CCN2C(=O)[C@H](C)N(C)C1=O [Compound 1364] ([NMeL]I[NMeA][Aze][NEtPhe(4-CF3)][Sar][hPhe(3,5-F2-4-CF3)]P[Ac5c][NMeI][NMeD]-Morpholide; lactam N-11) | 1.2 | ≤ 20
CC[C@H](C)[C@@H]1NC(=O)[C@H](CC(C)C)N(C)C(=O)C[C@@H](C(=O)N2C3CCC2COC3)N(C)C(=O)[C@H](C2CCCC2)N(C)C(=O)C2(CCCC2)NC(=O)[C@@H]2CCCN2C(=O)[C@H](CCc2ccc(C(F)(F)F)c(Cl)c2)NC(=O)CN(C)C(=O)[C@H](C2CCCC2)N(C)C(=O)[C@@H]2CCN2C(=O)[C@H](C)N(C)C1=O [Compound 721] ([NMeL]I[NMeA][Aze][NMeGly(cPent)][Sar][hPhe(3-Cl-4-CF3)]P[Ac5c][NMeGly(cPent)][NMeD]-{3Oxa8azabicyclo(3.2.1)octane}; lactam N-11) | 1.5 | ≤ 20
CC[C@H](C)[C@@H]1NC(=O)[C@H](CC(C)C)N(C)C(=O)C[C@@H](C)NC(=O)[C@H](CC(C)C)N(C)C(=O)C2(CCCC2)NC(=O)[C@@H]2C[C@H](O)CN2C(=O)[C@H](CCc2ccc(C(F)(F)F)c(F)c2)NC(=O)CN(C)C(=O)[C@H](CC2CCCCC2)N(C)C(=O)CN(C)C(=O)CN(C)C1=O [Compound 1529] (cyclo([Ac5c][NMeL][d(β3hA)][NMeL]I[Sar][Sar][NMeCha][Sar][hPhe(3-F,4-CF3)][cisHyp])) | 11 | > 500
CC[C@H](C)[C@@H]1NC(=O)[C@H](CC(C)C)N(C)C(=O)C[C@@H](C(=O)N(C)C)N(C)C(=O)[C@H](C2CCCC2)N(C)C(=O)C2(CCCC2)NC(=O)[C@@H]2CC(F)(F)CN2C(=O)[C@H](CCc2ccc(C(F)(F)F)c(F)c2)NC(=O)CN(C)C(=O)[C@H](CC2CCCCC2)N(C)C(=O)[C@@H]2CCN2C(=O)[C@H](C)N(C)C1=O [Compound 1264] ([NMeL]I[NMeA][Aze][NMeCha][Sar][hPhe(3-F,4-CF3)][Pro(4,4-F2)][Ac5c][NMeGly(cPent)][NMeD]-NMe2; lactam N-11) | 0.54 | ≤ 20
CC[C@H](C)[C@@H]1NC(=O)[C@H](CC(C)C)N(C)C(=O)C[C@@H](C)N(C)C(=O)[C@H](CC(C)C)NC(=O)C(C)(C)N(C)C(=O)[C@H](CC(C)C)NC(=O)[C@H](CCc2ccc(C(F)(F)F)c(F)c2)NC(=O)CN(C)C(=O)[C@H](CC2CCCCC2)N(C)C(=O)CN(C)C(=O)CN(C)C1=O [Compound 883] (cyclo(I[Sar][Sar][NMeCha][Sar][hPhe(3-F,4-CF3)]L[NMeAib]L[NMedβ3hAla][NMeL])) | 49 | > 500
CC[C@H](C)[C@@H]1NC(=O)[C@H](CC(C)C)N(C)C(=O)C[C@@H](C)N(C)C(=O)[C@H]([C@@H](C)CC)NC(=O)C(C)(C)N(C)C(=O)[C@H](CC(C)C)NC(=O)[C@H](CCc2ccc(C(F)(F)F)c(F)c2)NC(=O)CN(C)C(=O)[C@H](Cc2ccc(Cl)cc2)N(C)C(=O)CN(C)C(=O)CN(C)C1=O [Compound 800] (cyclo(I[Sar][Sar][NMePhe(4-Cl)][Sar][hPhe(3-F,4-CF3)]L[NMeAib]I[NMedβ3hAla][NMeL])) | 86 | > 500
CCO[C@@H]1C[C@H]2C(=O)NC3(CCC3)C(=O)N(C)[C@@H](C3CCCC3)C(=O)N(C)[C@H](C)CC(=O)N(C)[C@@H](CC(C)C)C(=O)N[C@@H]([C@@H](C)CC)C(=O)N(C)[C@@H](C)C(=O)N3CC[C@H]3C(=O)N(CC)[C@@H](Cc3ccc(C)cc3)C(=O)N(C)CC(=O)N[C@@H](CCc3ccc(C(F)(F)F)c(Cl)c3)C(=O)N2C1 [Compound 713] (cyclo([Ac4c][NMeGly(cPent)][NMedβ3hAla][NMeL]I[NMeA][Aze][NEtPhe(4-Me)][Sar][hPhe(3-Cl-4-CF3)][Hyp](Et))) | 4 | ≤ 20
